Assay results: article PMC5482477, “Overexpression and characterization of two types of nitrile hydratases from Rhodococcus rhodochrous J1” (PLoS ONE, 2017)

Target: T1, H-NHase (NhhBA) (Rhodococcus rhodochrous, UniProt P21219+P21220)
T1 construct: gene nhhA; alpha10beta10, 504 kDa by gel filtration; cobalt-containing
T1 sequence (P21219 2-203): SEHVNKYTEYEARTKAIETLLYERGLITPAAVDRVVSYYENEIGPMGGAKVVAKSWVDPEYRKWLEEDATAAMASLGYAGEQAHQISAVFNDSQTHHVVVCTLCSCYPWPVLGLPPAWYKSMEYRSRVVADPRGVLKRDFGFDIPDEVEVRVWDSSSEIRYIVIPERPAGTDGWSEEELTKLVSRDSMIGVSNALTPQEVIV
T1 sequence (P21220 1-229): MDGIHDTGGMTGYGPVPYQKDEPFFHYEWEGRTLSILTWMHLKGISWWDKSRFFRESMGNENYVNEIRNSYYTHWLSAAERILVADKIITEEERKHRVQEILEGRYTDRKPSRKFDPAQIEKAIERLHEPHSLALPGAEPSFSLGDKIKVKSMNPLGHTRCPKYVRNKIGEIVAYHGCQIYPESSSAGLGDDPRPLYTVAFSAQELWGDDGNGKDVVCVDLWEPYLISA
Test: residual activity after […] min treatment, HPLC
Assay type: biochemical

`NC(=O)c1cccnc1` [nicotinamide] showed a remaining activity at 1.5 M of 60%.
